Data on 4 compounds can be found in patent publication US6987093B2 (priority 2001, dated 2006).

Assay [1] has as its system Streptococcus pneumoniae 02J1016. Put plainly: Murine peritonitis model, Streptococcus pneumoniae. Type of assay: in vivo, mouse. Conditions: oral QD.
For assay [2], the system named is Streptococcus pyogenes 02C0203. Put plainly: Murine acute infection (peritonitis) model challenged with Streptococcus pyogenes. The assay is classed as in vivo, mouse.
The test system of assay [3] is Haemophilus influenzae 54A1100. Put plainly: Murine acute infection (peritonitis) model challenged with Haemophilus influenzae. Type of assay: in vivo, mouse. Conditions: for Mice Surviving/Total: Q.D. [1 day].
The test system of another assay is S. pyogenes 02C0203. Put plainly: MIC determination, S. pyogenes. Type of assay: cell-based, Streptococcus pyogenes. The note with it: listed as Clanthromycin. The protocol: (§1) MIC Determinations. Streptococcus pneumoniae, S. pyogenes, E. faecalis, and H. influenzae MICs were determined using the broth microdilution procedure recommended by the NCCLS. Test trays were incubated at 35C without carbon dioxide. For testing of streptococci, the cation-adjusted Mueller-Hinton broth was supplemented with 2–3% lysed horse blood. For testing H. influenzae, freshly prepared Haemophilus Test Medium broth was used.
(§2) Bacterial Strains. • S. pneumoniae 02J1016, serotype 3, originally isolated from blood culture (strain P 4241) (MLS- and penicillin-susceptible). • S. pyogenes 02C0203, ATCC 12384, group A, type 3 (MLS-susceptible). • E. faecalis 03A1085, vancomycin susceptible clinically derived strain. • H. influenzae 54A1100, (43095 ATCC Fulghum strain) non-serotype B strain originally isolated from otitis media (macrolide and penicillin susceptible). • H. influenzae 54A1218, clinically derived non-serotype B strain (macrolide-susceptible, penicillin-resistant, TEM-1 beta-lactamase).

For assay [4], the system named is Haemophilus influenzae 54A1100. Put plainly: Gerbil middle ear (otitis media) infection model, ED50, H. influenzae 54A1100. The assay is classed as in vivo. Conditions: oral QD; gerbil otitis media model.
The subject of the next assay is H. influenzae 54A1100. Put plainly: MIC determination, H. influenzae 54A1100. Type of assay: cell-based, Haemophilus influenzae. Conditions: H. influenzae 54A1100. As for the experimental part: as §1, §2
Assay [5] has as its system Streptococcus pneumoniae 02J1016. Description: Murine lung (pulmonary/pneumonia) infection model challenged with Streptococcus pneumoniae. The assay is classed as in vivo, mouse.
The next assay deals with S. pneumoniae isolates. Put plainly: Susceptibility (MIC) testing of trial S. pneumoniae isolates with PCR of resistance mechanism. Conditions: for MIC: Streptococcus pneumoniae. Type of assay: cell-based, Streptococcus pneumoniae. An excerpt: Samples of middle ear fluid were split for storage at a central laboratory and cultured locally. All pathogens isolated locally were subcultured and sent to a central laboratory for confirmation and susceptibility testing, performed by Kirby-Bauer disk-diffusion or MIC testing according to NCCLS standards.
Polymerase chain reaction (PCR) determination of resistance mechanisms in all the azithromycin-resistant pneumococci was done.
Cultures were taken for antimicrobial susceptibility testing and bacterial species were identified. Current NCCLS approved breakpoints for MICs and zone sizes were applied to all data irrespective of the breakpoint in use at the time of the study. The isolates from the clinical studies were sent to central laboratories for identification and susceptibility determination. The methods for agar diffusion disk tests are those recommended by NCCLS.
The susceptibility breakpoints for azithromycin were defined as follows: […]

Assay [6] relates to H. influenzae. The note with it: cited from earlier work.
Assay [7] concerns H. influenzae. Put plainly: Study 95-001 otitis media caused by H. influenzae. The note with it: single intramuscular dose 50 mg/kg; 9 patients; follow-up. Type of assay: in vivo, human. As for the experimental part: Specimens for culture and susceptibility testing were obtained from the infected ear by tympanocentesis within 24 h of start of therapy. […] However, the study was evaluated using the breakpoints in the most recent set of guidelines.
To be a bacteriological cure, the MITT subject had to have a positive culture from the middle ear for S. pneumoniae, H influenzae, or M. catarrhalis. Eradication was defined as presumed eradication of pretreatment pathogen(s) based on signs/symptoms or unavailability of culturable material. All evaluable patients had only one of the bacterial species present at baseline. There was no bacteriological response data collected for 95–001. However, the clinical outcome by bacterial pathogen at follow-up (approximately 28 days after first visit) was collected. For patients with S. pneumoniae as the baseline pathogen, all treatment arms yielded 100% clinical cure when the investigators' evaluations that were missing are not included in the analysis. […] The comparator drug, ceftriaxone, had no failures out of 9 patients.

Where [8] appears, read: 1.56 mg/kg/day P.O., 2 day regimen.
[9] abbreviates: 3.12 mg/kg/day P.O., 1 day regimen.
Setting [10] is: 6.25 mg/kg/day P.O., 2 day regimen.
[11] abbreviates: 25.0 mg/kg/day P.O., 2 day regimen.
[12] abbreviates: 50.0 mg/kg/day P.O., 1 day regimen.
Setting [13] is: oral QD, murine peritonitis model.
[14] abbreviates: oral QD, murine pneumonia model.

In brackets after ≈: the same amount, converted by molar mass. Where two headings read alike, the source gives them in different places. Where only a bound is given, the exact number is not on record here.

With `CC[C@H]1OC(=O)[C@H](C)[C@@H](O[C@H]2C[C@@](C)(OC)[C@@H](O)[C@H](C)O2)[C@H](C)[C@@H](O[C@@H]2O[C@H](C)C[C@H](N(C)C)[C@H]2O)[C@](C)(OC)C[C@@H](C)C(=O)[C@H](C)[C@@H](O)[C@]1(C)O` [Clarithromycin], the “ED50 One-Day Therapy” value in assay [1] is 99.8 mg/kg/therapy; in assay [2] (setting [13]), 11.7^1 mg/kg/therapy; in [3] (setting [13]), more than 200 mg/kg/therapy; in assay [4], more than 200 mg/kg/therapy; in [5] (setting [14]), 270 mg/kg/therapy. In addition, the “ED50 Three-Day Therapy” value in [1] is listed as 87.5 mg/kg/therapy; in assay [2] (setting [13]) it was 3.8 mg/kg/therapy; in assay [3] (setting [13]), more than 200 mg/kg/therapy; in assay [4] it was more than 200 mg/kg/therapy; in [5] (setting [14]), 338 mg/kg/therapy. Besides, the “ED50 Two-Day Therapy” value was 103.0 mg/kg/therapy in assay [1]; 2.5 mg/kg/therapy in assay [2] (setting [13]); more than 200 mg/kg/therapy in assay [3] (setting [13]); more than 200 mg/kg/therapy in assay [4]; 327 mg/kg/therapy in assay [5] (setting [14]). The “Mice Surviving/Total” value in assay [2] (0.20 mg/kg/day P.O., 3 day regimen) is given as 0/10; in [2] (0.39 mg/kg/day P.O., 2 day regimen) it was 0/10; in [2] (0.78 mg/kg/day P.O., 1 day regimen) it was 0/10; in assay [2] (0.78 mg/kg/day P.O., 3 day regimen), 5/10; in assay [2] (setting [8]), 8/10; in assay [2] (setting [9]), 4/10. Further, the “Mice Surviving/Total” value in [2] (3.12 mg/kg/day P.O., 3 day regimen) is on record as 9/10; in [2] (setting [10]), 9/10; in assay [2] (setting [11]), 8/10; in assay [2] (setting [12]), 10/10; in assay [2] ([…] P.O., 1 day regimen), 6/10; in assay [2] ([…] P.O., 3 day regimen) it was 10/10. Also, the “Mice Surviving/Total” value was 0/10 in assay [3] (3.12 mg/kg/day); 2/10 in assay [3] (50 mg/kg/day); 0/10 in [3] (200 mg/kg/day); 0/10 in assay [3] ([…]); 0/10 in assay [5] (1.04 mg/kg/day P.O., 3 day regimen); 0/10 in assay [5] (setting [8]). Besides, the “Mice Surviving/Total” value was 0/10 in assay [5] (setting [9]); 0/10 in assay [5] (4.2 mg/kg/day P.O., 3 day regimen); 0/10 in assay [5] (setting [10]); 0/10 in assay [5] (16.7 mg/kg/day P.O., 3 day regimen); 0/10 in [5] (setting [11]); 1/10 in assay [5] (setting [12]). Further, the “Mice Surviving/Total” value in [5] (66.7 mg/kg/day P.O., 3 day regimen) is on record as 2/10; in assay [5] (100.0 mg/kg/day P.O., 2 day regimen) it was 1/10; in [5] (200.0 mg/kg/day P.O., 1 day regimen), 4/10; in [5] ([…] P.O., 1 day regimen) it was 1/10. The “Oral PD50” value in assay [2] (Dosing Regimen 1 day) was 11.3 (3.1–19.4) mg/kg/day; in assay [2] (Dosing Regimen 2 days), 2.2 (0.9–3.6) mg/kg/day; in assay [2] (Dosing Regimen 3 days), 3.1 (2.6–3.7) mg/kg/day; in assay [3] (Dosing Regimen 1 day) it was more than 200 mg/kg/day; in assay [5] (Dosing Regimen 1 day), more than 200 mg/kg/day; in assay [5] (Dosing Regimen 2 days), more than 200 mg/kg/day. For the same compound, the “Oral PD50” value in assay [5] (Dosing Regimen 3 days) is more than 200 mg/kg/day. In assay [3] (one therapeutic dose (one day regimen), s.c.), the PD50 was more than 200 mg/kg. Moreover, the MIC entry in the assay with S. pyogenes 02C0203 was “MIC 0.01-0.03 μg/ml”; against H. influenzae 54A1100 (listed as Clanthromycin), 8 mg/L (≈ 10.7 µM); with H. influenzae 54A1100 (Haemophilus influenzae, read-out: MIC), 8 mg/L (≈ 10.7 µM). Moreover, the PD50s in assay [5] (all three q.d. regimens (1, 2, 3 days)) is more than 200 mg/kg; in [5] (previous data, BID administration over two days of therapy), 5 to 25 mg/kg.

For the compound `CCC[C@@H]1C[C@@H](C(=O)N[C@@H]([C@H]2O[C@H](SC)[C@H](O)[C@@H](O)[C@H]2O)[C@H](C)Cl)N(C)C1` [clindamycin], the “clindamycin MIC” value with S. pneumoniae isolates (S. pneumoniae strains with erm(B)) was found to be 128 mg/L. Moreover, the MIC was less than 0.06 mg/L in the assay with S. pneumoniae isolates (read-out: clindamycin MIC, S. pneumoniae strains confirmed as mef(A)) and more than 128 mg/L in the assay on S. pneumoniae isolates (read-out: clindamycin MIC, S. pneumoniae strains with erm(B)).

Turning to `CC=CC1=C(C(=O)O)N2C(=O)[C@@H](NC(=O)[C@H](N)c3ccc(O)cc3)[C@H]2SC1` [Cefprozil], in the assay with H. influenzae [6], the “success rate less than control (amoxicillin/clavulanic acid); presumptive bacterial/clinical cure outcomes (i.e., clinical success) at 10–16 days post-therapy” value is given as 17% less than control (amoxicillin/clavulanic.

In the case of `CO/N=C(\C(=O)N[C@@H]1C(=O)N2C(C(=O)O)=C(CSc3nc(=O)c(=O)[nH]n3C)CS[C@H]12)c1csc(N)n1` [Ceftriaxone], in the assay on H. influenzae [7], the failures entry is listed as “no failures”.
